Paper PMC8406801, “Naringenin Inhibits Platelet Activation and Arterial Thrombosis Through Inhibition of Phosphoinositide 3-Kinase and Cyclic Nucleotide Signaling” (Frontiers in Pharmacology, 2021)
Several values for one entry are separate records, joined by “and”; a condition that tells them apart may be missing. Identical values can stand only once.

Assays:
Type in all cases: cell-based, rat
[1] = system: VASP Ser157 phosphorylation; assay: Immunoblotting of phospho-VASP (Ser157) in ADP-stimulated washed platelets; details: for p-VASP(Ser157) / GAPDH (Fold to ADP only) / p-VASP(Ser157) / GAPDH (raw data): ADP-stimulated, Figure 7B
Protocol: (§1) For in vitro platelet aggregation, aliquots of washed platelets were preincubated with vehicle or various concentrations of naringenin for 5 min and stimulated with ADP (10 μmol/L) under stirring at 37°C for 5 min. For ex vivo platelet aggregation, PRP was incubated at 37°C for 5 min and stimulated with ADP (5 μmol/L) under stirring at 37 °C. The platelet aggregation was terminated by adding ethylenediaminetetraacetic acid (EDTA; 10 mM). Total protein was prepared using RIPA lysis buffer and protein content was determined by bicinchoninic acid (BCA) protein assay kit. Equal amounts of platelet proteins (30 μg) were separated on 10% SDS polyacrylamide gel electrophoresis (SDS-PAGE) and then transferred to poly vinylidene difluoride (PVDF) membranes and subjected to western blot. Blots were blocked with TBS-Tween 20 containing 5% BSA and probed with primary antibodies diluted in blocking solution at 4°C overnight followed by incubation with the corresponding HRP secondary antibodies. The protein bands were visualized using enhanced chemiluminescence (ECL).
VASP is a substrate for cAMP- and cGMP- dependent protein kinases, which mediate cAMP- and cGMP-dependent inhibitory signaling in platelets, respectively. Increased cAMP levels followed by the activation of cAMP-dependent protein kinase A (PKA) phosphorylates VASP at position Ser157, whereas the elevation of cGMP leads to VASP phosphorylation at position Ser239 by cGMP-dependent protein kinase G (PKG) ([Aszódi et al., 1999]; [Li et al., 2003a]). To further examine whether naringenin modulates cAMP- or cGMP-mediated inhibitory signaling, the phosphorylation of VASP (Ser157 and Ser239) in washed platelets on stimulation with ADP were measured in the absence or presence of naringenin (100, 200, 400, and 800 μM). […] To further confirm the antiplatelet effects of naringenin through PKA-dependent signaling, the effects of naringenin on platelet aggregation were measured in the presence of PKG inhibitor (Rp-8-Br-PET-cGMPS) and PKA inhibitor (H89).
FIGURE 7 Naringenin promotes VASP phosphorylation. The effects of naringenin on phosphorylation of VASP (at positions Ser 157 and Ser239) were measured in washed platelets upon stimulation with ADP (10 μmol/L) by western blotting (A). The blots shown are representative of three separate experiments. The phosphorylation levels were quantified by ImageJ 1.47v software. The level of phosphorylation obtained with vehicle control (0 μM) was taken as 1 (B,C). R represents the phosphorylation level in resting platelets. Data are expressed as means ± SD (n = 3). *p < 0.05, ***p < 0.001 compared with the vehicle control group. VASP phosphorylation at Ser239 was also analyzed in washed platelets incubated with 5 μmol/L PKA (H89), 30 μmol/L PKG (Rp-8-Br-PET-cGMPS), or 5 μmol/L PKC (GF109203X) inhibitors before treatment with naringenin (D). Washed platelets were incubated with vehicle or naringenin (200 μmol/L) at 37°C in the presence or absence of 5 μmol/L PKA (H89) or 30 μmol/L PKG (Rp-8-Br-PET-cGMPS) inhibitors. After treatment, platelets were stimulated with ADP (10 μmol/L) to trigger aggregation (E). Data are expressed as means ± SD (n = 6). ***p < 0.001 compared with the ADP-treated group, ^# p < 0.05, ^### p < 0.001 compared with naringenin alone or H89 alone.

[2] = system: GSK3β Ser9 phosphorylation; assay: Immunoblotting of phospho-GSK3β (Ser9) in ADP-stimulated washed platelets; details: for p-GSK3β / t-GSK3β / p-GSK3β / t-GSK3β (Fold to ADP only): ADP 10 μmol/L, single replicates; for p-GSK3β / t-GSK3β: raw data
Protocol: as §1
(§2) FIGURE 4 Naringenin inhibits PI3K-mediated signaling in ADP-induced platelets. Washed rat platelets were preincubated without or with naringenin at 37°C for 5 min, and then stimulated with ADP (10 μmol/L) under stirring for 5 min. Platelet proteins were then extracted and analyzed by immunoblotting using PI3Kp110β antibody (A) and phospho-specific antibodies such as Akt^Ser473 (B), Akt^Thr308 (C), ERK1/2^Thr202/Tyr204 (D) and GSK3β^Ser9 (E). Total level of GAPDH was measured on each sample as a loading control. The blots shown are representative of three separate experiments. The relative protein expression levels were quantified by ImageJ 1.47v software. The level of relative protein expression obtained with vehicle control (0 μM) was taken as 1. R represents the level of relative protein expression in resting platelets. Data are expressed as means ± SD (n = 3). *p < 0.05, **p < 0.01, ***p < 0.001 compared with the vehicle control group.

[3] = system: Akt Thr308 phosphorylation; assay: Immunoblotting of phospho-Akt (Thr308) in ADP-stimulated washed platelets; details: ADP 10 μmol/L, single replicates; for p-Akt Thr308 / t-Akt: raw data
Protocol: as §1, §2

ERK1/2 phosphorylation = assay: Immunoblotting of phospho-ERK1/2 (Thr202/Tyr204) in ADP-stimulated washed platelets; details: ADP 10 μmol/L, single replicates; for p-ERK1/2 / t-ERK: raw data
Protocol: as §1, §2

## O=C1C[C@@H](c2ccc(O)cc2)Oc2cc(O)cc(O)c21 [Naringenin]
[1]; ADP-stimulated washed platelets, 100, 200, 400, and 800 μM
  phosphorylation of VASP at Ser157: did not significantly alter
[1]; naringenin 200 μM
  p-VASP(Ser157) / GAPDH (Fold to ADP only): 1.6152 and 1.1716 and 1.5055
  p-VASP(Ser157) / GAPDH (raw data): 0.7758 and 0.5628 and 0.7232
[1]; naringenin 400 μM
  p-VASP(Ser157) / GAPDH (Fold to ADP only): 1.6752 and 1.3720 and 1.0597
  p-VASP(Ser157) / GAPDH (raw data): 0.8047 and 0.6590 and 0.5090
[1]; naringenin 800 μM
  p-VASP(Ser157) / GAPDH (Fold to ADP only): 1.6695 and 1.5145 and 1.3641
  p-VASP(Ser157) / GAPDH (raw data): 0.8019 and 0.7275 and 0.6552
[2]; 100 μM
  p-GSK3β / t-GSK3β: 0.3609 and 0.3982 and 0.3384
  p-GSK3β / t-GSK3β (Fold to ADP only): 0.5893 Fold to ADP only and 0.6502 Fold to ADP only and 0.5525 Fold to ADP only
[2]; 200 μM
  p-GSK3β / t-GSK3β: 0.4301 and 0.3431 and 0.4790
  p-GSK3β / t-GSK3β (Fold to ADP only): 0.7022 Fold to ADP only and 0.5603 Fold to ADP only and 0.7821 Fold to ADP only
[2]; 400 μM
  p-GSK3β / t-GSK3β: 0.3379 and 0.5076 and 0.5137
  p-GSK3β / t-GSK3β (Fold to ADP only): 0.5517 Fold to ADP only and 0.8288 Fold to ADP only and 0.8388 Fold to ADP only
[2]; 800 μM
  p-GSK3β / t-GSK3β: 0.4062 and 0.4495 and 0.5157
  p-GSK3β / t-GSK3β (Fold to ADP only): 0.6632 Fold to ADP only and 0.7339 Fold to ADP only and 0.8420 Fold to ADP only
[2]; ADP-induced platelets
  influence on GSK3β phosphorylation: no influence
[3]; 100 μM
  p-Akt Thr308 / t-Akt: 0.1089 and 0.0807 and 0.1359
  p-Akt Thr308 / t-Akt (Fold to ADP only): 0.3238 Fold to ADP only and 0.2400 Fold to ADP only and 0.4039 Fold to ADP only
[3]; 200 μM
  p-Akt Thr308 / t-Akt: 0.0912 and 0.0481 and 0.0944
  p-Akt Thr308 / t-Akt (Fold to ADP only): 0.2711 Fold to ADP only and 0.1429 Fold to ADP only and 0.2806 Fold to ADP only
[3]; 400 μM
  p-Akt Thr308 / t-Akt: 0.0712 and 0.0237 and 0.0830
  p-Akt Thr308 / t-Akt (Fold to ADP only): 0.2116 Fold to ADP only and 0.0703 Fold to ADP only and 0.2468 Fold to ADP only
[3]; 800 μM
  p-Akt Thr308 / t-Akt: 0.0216 and 0.0199 and 0.0438
  p-Akt Thr308 / t-Akt (Fold to ADP only): 0.0641 Fold to ADP only and 0.0591 Fold to ADP only and 0.1303 Fold to ADP only
ERK1/2 phosphorylation; 100 μM
  p-ERK1/2 / t-ERK: 0.3358 and 0.4551 and 0.3494
  p-ERK1/2 / t-ERK (Fold to ADP only): 0.4798 Fold to ADP only and 0.6502 Fold to ADP only and 0.4991 Fold to ADP only
ERK1/2 phosphorylation; 200 μM
  p-ERK1/2 / t-ERK: 0.2390 and 0.3446 and 0.2653
  p-ERK1/2 / t-ERK (Fold to ADP only): 0.3414 Fold to ADP only and 0.4923 Fold to ADP only and 0.3790 Fold to ADP only
ERK1/2 phosphorylation; 400 μM
  p-ERK1/2 / t-ERK: 0.0291 and 0.2751 and 0.1193
  p-ERK1/2 / t-ERK (Fold to ADP only): 0.0416 Fold to ADP only and 0.3930 Fold to ADP only and 0.1704 Fold to ADP only
ERK1/2 phosphorylation; 800 μM
  p-ERK1/2 / t-ERK: 0.0106 and 0.1491 and 0.1406
  p-ERK1/2 / t-ERK (Fold to ADP only): 0.0152 Fold to ADP only and 0.2129 Fold to ADP only and 0.2008 Fold to ADP only
